Here are results for 13 compounds from US4713371A, “Anthracycline derivatives and their use as cytostatics” (Hoechst Aktiengesellschaft, priority 1983, dated 1987).

Assay [1] has as its system L1210 mouse leukemia cells. Description: Proliferation assay (14C-thymidine incorporation) on L1210 leukemia cells. It counts as cell-based. The note with it: read-out: Proliferation test IC50. As to the method:
(§1) The cytostatic activity of the compounds described in this text was determined on L1210 mouse leukemia cells. Specifically, the following test systems were used:
In this method, the extent to which the cells can incorporate radioactive DNA precursors (for example ^14 C-labeled thymidine) in vitro is determined after incubation of the cells with various concentrations of the test substance. Untreated L1210 cells are subjected to the same test conditions and serve as the control. The method is briefly described below:
L1210 cells in the exponential phase of growth (5×10^3 /ml in RPMI 1640) are incubated in a microtiter plate with various concentrations of the test substance for 72 hours (37° C., 5% CO2, 95% relative humidity). The controls comprise cells which are merely incubated with fresh medium. All determinations are carried out in quadruplicate. After 65 hours, 50 μl of ^14 C-thymidine (1.5 μCi/ml) are added in order to radiolabel the DNA in the cells. After incubation for 7 hours, the cells are filtered off with suction, the DNA is precipitated with 5% strength trichloroacetic acid and is then washed consecutively with water and methanol.
After drying at 50° C. and addition of 5 ml of scintillation liquid, the radioactivity incorporated in the DNA is measured.
The results are reported as the ratio of the scintillation count after incubation with the test substance as a percentage of the untreated control. The dose-activity curve is derived from the figures thus measured, and the IC50, i.e. the concentration which decreases the incorporation of radioactive thymidine by 50% compared with the control under the test conditions, is determined graphically. The IC50 figures for the compounds described in this text are summarized and compared with adriamycin (ADM) in Table 1.
A general note: Incorporation of labelled thymidine or its analogues reports DNA synthesis.

For another assay, the system named is L1210 leukemia cells. Description: Formation of colonies of L1210 leukemia cells in soft agar. The class given is cell-based. The note with it: Mus musculus. How it is done: as §1
(b) Formation of colonies of L1210 leukemia cells in soft agar
This method is used to detect an effect of the test substance on the growth characteristics of the cells over several generations (with the cell cycle period being 10-12 hours, about 14 consecutive generations are observed in the 7-day test period).
In this test, substances having cytostatic effects bring about a reduction in the number of colonies found compared with an untreated control. Specifically, the test is carried out as follows:
500 leukemia cells per plate are incubated with various concentrations of the test substance at 37° C. for 1 hour. The cells are then washed twice with McCoy 5a medium and, after addition of 0.3% agar, are finally poured into Petri dishes. Controls are merely incubated with fresh medium. In some cases, in place of incubation for 1 hour, various concentrations of the test substance are mixed into the upper agar layer in order thus to achieve continuous exposure of the cells throughout the incubation time. After the agar has solidified, the plates are incubated in an incubator at 37° C. for 7 days (5% CO2, 95% relative humidity). Then the number of resulting colonies having a diameter of 60μ is counted. The results are reported as the number of colonies in the treated agar plates as a percentage of the untreated control. The IC50 is determined from the dose-activity curve thus obtained and serves as a measure of the action of the substance. The results for the compounds described in this text are summarized and compared with adriamycin in Table 1.

Where [2] appears, read: 72 hours incubation, L1210 cells, 14C-thymidine incorporation.
The mark [3] stands for this setting: 168 h, 7 days incubation (continuous exposure), soft agar, L1210, read-out: Colony formation test IC50, 7 days incubation.
Setting [4] is: 1 hour incubation, then washed, soft agar 7 days, L1210, read-out: Colony formation test IC50, 1 hour incubation.
[5] abbreviates: L1210, 168 h, read-out: Colony formation test IC50, 7 days incubation.
[6] abbreviates: L1210, read-out: Colony formation test IC50, 1 hour incubation.

The structures appear in SMILES notation. Values after ≈ are worked out from the molar mass of the structure shown. Read-outs that look alike come from different tables or passages of the source.

Take `COc1cccc2c1C(=O)c1c(O)c3c(c(O)c1C2=O)C[C@@](O)(C(=O)CO)C[C@@H]3O[C@H]1C[C@H](N)[C@H](O)[C@H](C)O1` [ADM, adriamycin, reference compound]: the results for the IC50 (in assay [1] (setting [2]); in the assay on L1210 leukemia cells (setting [3]); with L1210 leukemia cells (setting [4])) were 6 ng/mL (≈ 11 nM), 22 ng/mL (≈ 40.5 nM) and 44 ng/mL (≈ 81 nM), respectively.

On to `CCC1(O)CC(OC2CC(N(C)C)C(OC3CCC(OC4CCC(O)C(C)O4)C(C)O3)C(C)O2)c2c(O)c3c(c(O)c2C1OC1CC(N(C)C)C(OC2CCC(OC4CCC(O)C(C)O4)C(C)O2)C(C)O1)C(=O)c1cccc(O)c1C3=O` (stereo not shown) [Cytorhodin A], for which the figures for the IC50 (in assay [1] (setting [2]); with L1210 leukemia cells (setting [3]); in the assay on L1210 leukemia cells (setting [4])) were 1.1 ng/mL (≈ 0.95 nM), 3 ng/mL (≈ 2.59 nM) and 1.3 ng/mL (≈ 1.12 nM), respectively.

Take `CCC1(O)CC(OC2CC(N(C)C)C(OC3CC(O)C(OC4CCC(=O)C(C)O4)C(C)O3)C(C)O2)c2c(O)c3c(c(O)c2C1OC1CC(N(C)C)C(OC2CCC(OC4CCC(O)C(C)O4)C(C)O2)C(C)O1)C(=O)c1cccc(O)c1C3=O` (stereo not shown) [Cytorhodin B]: the IC50 in assay [1] (setting [2]) came to 2.8 ng/mL (≈ 2.39 nM); in the assay on L1210 leukemia cells (setting [3]), 3.4 ng/mL (≈ 2.9 nM); in the assay on L1210 leukemia cells (setting [4]), 1.2 ng/mL (≈ 1.02 nM).

For `CCC1(O)CC(OC2CC(N(C)C)C(OC3CC4OC5CC(=O)C(C)OC5OC4C(C)O3)C(C)O2)c2c(O)c3c(c(O)c2C1OC1CC(N(C)C)C(OC2CC4OC5CC(=O)C(C)OC5OC4C(C)O2)C(C)O1)C(=O)c1cccc(O)c1C3=O` (stereo not shown) [Cytorhodin C], the IC50 in assay [1] (L1210, 72 h) stood at 0.55 ng/mL (≈ 0.466 nM); with L1210 leukemia cells (setting [5]), 0.15 ng/mL (≈ 0.127 nM); with L1210 leukemia cells (setting [6]), 3.4 ng/mL (≈ 2.88 nM).

Turning to `CCC1(O)CC(OC2CC(N(C)C)C(OC3CC4OC5CC(=O)C(C)OC5OC4C(C)O3)C(C)O2)c2c(O)c3c(c(O)c2C1OC1CC(N(C)C)C(OC2CCC(OC4C=CC(=O)C(C)O4)C(C)O2)C(C)O1)C(=O)c1cccc(O)c1C3=O` (stereo not shown) [Cytorhodin D], the IC50 came out at 0.28 ng/mL (≈ 0.24 nM) in assay [1] (L1210, 72 h); 3.7 ng/mL (≈ 3.18 nM) in the assay with L1210 leukemia cells (setting [5]); 2.8 ng/mL (≈ 2.4 nM) in the assay on L1210 leukemia cells (setting [6]).

For `CCC1(O)CCc2c(O)c3c(c(O)c2C1OC1CC(N(C)C)C(OC2CCC(OC4CCC(O)C(C)O4)C(C)O2)C(C)O1)C(=O)c1cccc(O)c1C3=O` (stereo not shown) [Cytorhodin E], the IC50 in assay [1] (setting [2]) was determined as 25 ng/mL (≈ 33.1 nM); in the assay on L1210 leukemia cells (setting [3]) it was 1.4 ng/mL (≈ 1.85 nM); in the assay on L1210 leukemia cells (setting [4]), 28 ng/mL (≈ 37 nM).

For the compound `CCC1(O)CC(OC2CC(N(C)C)C(OC3CCC(OC4C=CC(=O)C(C)O4)C(C)O3)C(C)O2)c2c(O)c3c(c(O)c2C1OC1CC(N(C)C)C(OC2CCC(OC4C=CC(=O)C(C)O4)C(C)O2)C(C)O1)C(=O)c1cccc(O)c1C3=O` (stereo not shown) [Cytorhodin F], the IC50 in assay [1] (setting [2]) came out at 2.4 ng/mL (≈ 2.09 nM); with L1210 leukemia cells (setting [3]), 28 ng/mL (≈ 24.4 nM); in the assay on L1210 leukemia cells (setting [4]), 42 ng/mL (≈ 36.5 nM).

As to `CCC1(O)CC(OC2CCC(OC3CCC(OC4CCC(O)C(C)O4)C(C)O3)C(C)O2)c2c(O)c3c(c(O)c2C1C(=O)OC)C(=O)c1cccc(O)c1C3=O` (stereo not shown) [Cytorhodin J], the IC50 in assay [1] (setting [2]) was 4400 ng/mL (≈ 5710 nM).

As for `CCC1(O)CCc2c(O)c3c(c(O)c2C1OC1CC(N(C)C)C(OC2CC(O)C(OC4CCC(O)C(C)O4)C(C)O2)C(C)O1)C(=O)c1cccc(O)c1C3=O` (stereo not shown) [Cytorhodin K], the IC50 in assay [1] (setting [2]) was found to be 3.7 ng/mL (≈ 4.79 nM); in the assay on L1210 leukemia cells (setting [3]) it was 3 ng/mL (≈ 3.89 nM); with L1210 leukemia cells (setting [4]), 31 ng/mL (≈ 40.2 nM).

Take `CCC1(O)CCc2c(O)c3c(c(O)c2C1OC1CC(N(C)C)C(OC2CCC(O)C(C)O2)C(C)O1)C(=O)c1cccc(O)c1C3=O` (stereo not shown) [Cytorhodin L]: the IC50 in assay [1] (setting [2]) came out at 300 ng/mL (≈ 467 nM); in the assay on L1210 leukemia cells (setting [3]), 210 ng/mL (≈ 327 nM); in the assay on L1210 leukemia cells (setting [4]), 1750 ng/mL (≈ 2730 nM).

In the case of `CCC1(O)CCc2c(O)c3c(c(O)c2C1OC1CC(N(C)C)C(OC2CC(O)C(O)C(C)O2)C(C)O1)C(=O)c1cccc(O)c1C3=O` (stereo not shown) [Cytorhodin M], the IC50 in assay [1] (setting [2]) came out at 280 ng/mL (≈ 426 nM); in the assay with L1210 leukemia cells (setting [3]) it was 160 ng/mL (≈ 243 nM); with L1210 leukemia cells (setting [4]), 390 ng/mL (≈ 593 nM).

Turning to `CCC1(O)CC(OC2CC(N(C)C)C(OC3CC(O)C(OC4CCC(=O)C(C)O4)C(C)O3)C(C)O2)c2c(O)c3c(c(O)c2C1OC1CC(N(C)C)C(OC2CCC(OC4C=CC(=O)C(C)O4)C(C)O2)C(C)O1)C(=O)c1cccc(O)c1C3=O` (stereo not shown) [Cytorhodin P], the IC50 was 2.6 ng/mL (≈ 2.23 nM) in assay [1] (setting [2]), 0.32 ng/mL (≈ 0.274 nM) in the assay with L1210 leukemia cells (setting [3]) and 2.8 ng/mL (≈ 2.4 nM) with L1210 leukemia cells (setting [4]).

Turning to `CCC1(O)CC(OC2CC(N(C)C)C(OC3CCC(OC4C=CC(=O)C(C)O4)C(C)O3)C(C)O2)c2c(O)c3c(c(O)c2C1OC1CC(N(C)C)C(OC2CCC(OC4CCC(O)C(C)O4)C(C)O2)C(C)O1)C(=O)c1cccc(O)c1C3=O` (stereo not shown) [Cytorhodin V], the IC50 in assay [1] (setting [2]) came to 2.9 ng/mL (≈ 2.51 nM); in the assay on L1210 leukemia cells (setting [3]), 0.27 ng/mL (≈ 0.234 nM); with L1210 leukemia cells (setting [4]), 2 ng/mL (≈ 1.73 nM).
